{"source": "patent US20120076808A1", "about": "“COMBINED ANTIGEN AND DNA VACCINE FOR PREVENTING AND TREATING AUTOIMMUNE DISEASES” (CHINA AGRICULTURAL UNIVERSITY, priority 2010, published 2012)", "key": {"[1]": {"test_system": "JAWS II cells", "assay": "Endocytosis inhibitor pre-treatment of JAWS II cells fed pOVA323+OVA323, CD40 staining", "type": "cell-based, mouse", "details": "pre-treatment before pOVA323+OVA323", "experimental": "FIG. 24. DCs co-take up DNA and protein immunogens via clathrin- and caveolae-mediated endocytosis. A) JAWS II cells were pre-treated with PBS, MDC (50 μM), or filipin (10 μg/ml) for 30 min at 37° C. and then fed Cy5-pOVA323+FITC-OVA323 or Cy5-pVAX+FITC-OVA323 for 24 h. The cells were stained with anti-CD40-PE and analyzed by flow cytometry. Shown is CD40 staining of Cy5/FITC double-positive cells (gated). B) A summary of the experimental results are shown.\nFIG. 30. Effect of amiloride on the expression of CD40 in JAWS II cells. JAWS II cells were pre-treated with amiloride (5 mM) for 10 min at 37° C. and then co-treated with Cy5-pOVA323+FITC-OVA323 or Cy5-pVAX+FITC-OVA323 for 24 h. The cells were stained with anti-CD40-PE and analyzed by flow cytometry.\nThe JAWS II mouse DC line was purchased from the American Type Culture Collection (ATCC, Manassas, Va., USA) and maintained in complete growth medium containing minimum essential medium (MEM) alpha with ribonucleosides, deoxyribonucleosides, 4 mM L-glutamine, and 1 mM sodium pyruvate (Invitrogen Inc., Carlsbad, Calif., USA), and supplemented with 20% fetal bovine serum (ATCC) and 5 ng/ml murine recombinant GM-CSF (R&D Systems, Inc., Minneapolis, Minn., USA). The cells were incubated at 37° C. with 5% CO2 and treated with different antigens (10 μg/ml) such as pVAX, pOVA, OVA, pOVA323 and OVA323 for 24 h. […]"}, "[2]": {"test_system": "BALB/c mice with OVA-induced inflammatory bronchitis", "assay": "OVA-induced inflammatory bronchitis, adoptive transfer of DCregs", "type": "in vivo", "details": "DCs pretreated with filipin", "experimental": "FIG. 28. Co-immunization-induced DCregs ameliorate inflammatory bronchitis. A) Experimental design: Balb/c mice were injected with 0.1 ml of 1 mg/ml OVA/alum complexes in PBS on days 0 and 7 by i.p. and subsequently challenged with 100 μg OVA intra-tracheally on days 14, 16 and 18 to establish the “model”. Control mice were received with PBS intra-tracheally on days 14, 16 and 18 and designated as the “shame” control. On day 21, 5×10^5 of CD11c+ cells from syngeneic donor mice were transferred into model mice once daily for 3 consecutive days by i.v. (n=3 per group). Prior to the transfer, donor CD11c+ cells purified from spleen of naïve mice were pre-treated with or without filipin and subsequently co-treated with pOVA+OVA or pVAX+OVA for 24 h. On day 14 after the final transfer, serum samples were taken to analyze the levels of IgE or cytokine productions. Sections of lung tissues were made to evaluate disease severity. B) the level of antigen specific IgE was analyzed by ELISA following adoptive transfer of indicated DCs. […] D) Lung sections were examined by H&E staining and recorded under a light microscope at ×100 and ×200 magnification. […]\nLung or ovary were fixed in 4% paraformaldehyde or Bouin's solution and embedded in paraffin blocks. […] Histopathology of lung or ovary was evaluated under a light microscope. […]"}}, "data": [{"smiles": "CCCCC[C@@H](O)[C@H]1C(=O)O[C@H](C)[C@@H](O)/C=C/C=C/C=C/C=C/C=C(\\C)[C@@H](O)C[C@H](O)C[C@H](O)C[C@H](O)C[C@H](O)C[C@H](O)C[C@@H]1O", "note": "[filipin]", "values": [{"measurement": "effect on CD40low phenotype / CD40 expression", "setting": "[1]", "value": "could prevent the CD40^1′ phenotype, filipin was more effective than MDC"}, {"measurement": "anti-inflammatory effect of pOVA+OVA treated DCs after inhibitor pre-treatment", "setting": "[2]", "value": "absent"}]}]}
